Columns and labels:
[1] = test system: A2780cis cells; test: Alamar blue cytotoxicity assay, A2780cis; assay type: cell-based, human
Protocol: (§1) All cell lines were maintained in a humidified incubator at 37° C. in 5% CO2. A2780 and A2780cis cells were cultured in RPMI 1640 (Corning Cellgro) supplemented with 10% fetal bovine serum (Giboc, Life Technologies), 1% L-glutamine (Corning Cellgro), penicillin and streptomycin (Corning Cellgro). Cells were seeded at a density of 2,000 cells/well in culture media (50 pt) in […] plates 24 hours prior to treatment. Cells were treated with DMSO (vehicle control), doxorubicin (positive control, 10 μM final), cisplatin (50 μM to 25 nM), or triptycenes (50 μM to 25 nM) for 72 hours at 37° C. with 5% CO2. DMSO concentrations were kept at 1%. Alamar blue (5 μL) was added and incubated for 4 hours. Fluorescence was measured at 590 nm. The vehicle control was taken as 100% cell viability and doxorubicin was taken as 0% viability.

[2] = test system: DNA 3WJ; test: UV thermal melting of DNA 3WJ (Example 1); assay type: binding; settings: Example 1 numbering, DNA 3WJ 1 μM, ligand 4 μM, 10 mM CacoK pH 7.2
Protocol: (§2) An aqueous solution of 10 mM potassium cacodylate (CacoK), pH 7.2 was used as analysis buffer. DNA 3WJ and dsDNA were brought to a final concentration of 1 1.1.1\4 and 2 μM, respectively. Samples were heated to 90° C. for 5 min, cooled to room temperature slowly, then to 4° C. Samples were incubated for 1 hour at room temperature with 3 μL of ligand at a final concentration of 4 μM for DNA 3WJ. The concentration of the ligand was 8 μM for dsDNA. Denaturation was recorded at 260 nm from 5° C. to 90° C. with a heating rate of 0.5° C. min^−1. Upper and lower baselines were used to plot the fraction folded.

[3] = test system: dsDNA; test: UV thermal melting of dsDNA (Example 1); assay type: binding; settings: Example 1 numbering, dsDNA 2 μM, ligand 8 μM, 10 mM CacoK pH 7.2
Protocol: as §2

[4] = test system: A2780 cells; test: Alamar blue cytotoxicity assay, A2780; assay type: cell-based, human; settings: Example 1 numbering, 72 hours, viability shown at 50 μM
Protocol: as §1

[5] = test system: d(CAG)n(CTG) repeat nucleic acid junction; test: Fluorescence quenching assay, TNR 3WJ (Example 5); assay type: binding; settings: comparison in words
Protocol: Fluorescence Quenching Assay: All experiments were conducted in 50 mM sodium phosphate buffer, pH 7.2. Fluorescence measurements were recorded with excitation at 495 nm and emission at 520 nm using 5 nm bandwidths on a Tecan M1000 plate reader. […] Samples were incubated for 2h and measured in triplicate in a 384-well plate.

SMILES: NCCCCCCCNC(=O)c1ccc2c(c1)C1c3ccc(C(=O)NCCCCCCCN)cc3C2c2cc(C(=O)NCCCCCCCN)ccc21 [Trip 2 (Example 1), N^2,N^6,N^14-tris(7-aminoheptyl)-9,10-dihydro-9,10-[1,2]benzenoanthracene-2,6,14-tricarboxamide]
- viability of A2780cis cells ([1]; 50 µM): 6%

SMILES: CN(CCCN)CCCNC(=O)c1ccccc1 [Compound 4 (Example 1), N-(3-((3-aminopropyl)(methyl)amino)propyl)benzamide]
- ΔTm, stabilization of DNA 3WJ [2]: 2.0 °C
- ΔTm, dsDNA [3]: −1.3 °C

SMILES: CN(C)CCCNC(=O)c1ccc2c(c1)C1c3ccc(C(=O)NCCCN(C)C)cc3C2c2cc(C(=O)NCCCN(C)C)ccc21 [Trip 3 (Example 1), N^2,N^6,N^14-tris(3-(dimethylamino)propyl)-9,10-dihydro-9,10-[1,2]benzenoanthracene-2,6,14-tricarboxamide]
- cytotoxicity in A2780 cells [4]: No cytotoxic activity
- cytotoxicity in A2780cis cells ([1]; Example 1 numbering, cisplatin-resistant line, Alamar blue, 72 hours, viability shown at 50 μM): No cytotoxic activity

SMILES: NC(Cc1cnc[nH]1)C(=O)Nc1ccc2c(c1)C1c3ccc(NC(=O)C(N)Cc4cnc[nH]4)cc3C2c2cc(NC(=O)C(N)Cc3cnc[nH]3)ccc21 [Trip 4 (Example 3), (2S,2′S,2″S)—N,N′,N″-(9,10-dihydro-9,10-[1,2]benzenoanthracene-2,7,15-triyl)tris(2-amino-3-(1H-imidazol-5-yl)propanamide)]
- relative binding affinity toward the TNR junction [5]: highest affinity

SMILES: NCCCCC(N)C(=O)Nc1ccc2c(c1)C1c3ccc(NC(=O)C(N)CCCCN)cc3C2c2cc(NC(=O)C(N)CCCCN)ccc21 [Trip 3 (Example 3), (2S,2'S,2″S)—N,N′,N″-(9,10-dihydro-9,10-[1,2]benzenoanthracene-2,7,15-triyl)tris(2,6-diaminohexanamide)]
- relative binding affinity toward the TNR junction [5]: highest affinity

From US20180265911A1, “TRIPTYCENE DERIVATIVES FOR NUCLEIC ACID JUNCTION STABILIZATION” (THE TRUSTEES OF THE UNIVERSITY OF PENNSYLVANIA, priority 2015, published 2018)
